According to ChEMBL document CHEMBL1201862, “PubChem BioAssay data set” (2004):
Blank lines part the entries; values can stand above or below the compound they belong to. The source made the active and inactive calls.

What was measured:
[1] = molecular target: T1, Sentrin-specific protease 8 (Homo sapiens, UniProt Q96LD8); format: functional
T1 sequence (Q96LD8 whole entry): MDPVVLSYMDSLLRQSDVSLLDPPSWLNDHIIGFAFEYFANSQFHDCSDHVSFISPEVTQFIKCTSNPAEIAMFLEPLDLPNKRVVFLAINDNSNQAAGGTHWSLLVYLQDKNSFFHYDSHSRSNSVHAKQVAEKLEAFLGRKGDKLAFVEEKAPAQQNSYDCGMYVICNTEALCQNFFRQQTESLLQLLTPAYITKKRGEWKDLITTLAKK

[2] = molecular target: T1, Sentrin-specific protease 8; format: functional; remark: listed apart in the source
Caspase-6 = molecular target: T2, Caspase-6 (Homo sapiens, UniProt P55212); assay: inhibition of CASP6 peptide cleavage – biochemical, VEID-R110 fluorescence, cherry-pick, dose response (AID 720632)
T2 sequence (P55212 whole entry): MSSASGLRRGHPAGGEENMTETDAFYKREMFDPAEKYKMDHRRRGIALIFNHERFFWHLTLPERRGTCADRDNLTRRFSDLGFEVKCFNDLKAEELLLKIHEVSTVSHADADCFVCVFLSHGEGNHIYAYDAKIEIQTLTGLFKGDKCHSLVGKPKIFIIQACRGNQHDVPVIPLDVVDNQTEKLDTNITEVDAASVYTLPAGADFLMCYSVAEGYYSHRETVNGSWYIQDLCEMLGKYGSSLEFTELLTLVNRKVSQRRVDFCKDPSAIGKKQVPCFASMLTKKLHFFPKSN

[3] = molecular target: T3, Beta-2 adrenergic receptor (Homo sapiens, UniProt P07550); assay: Dose response for HTS for Beta-2AR agonists via FAP method from Powderset1.; format: functional
[4] = molecular target: T3, Beta-2 adrenergic receptor; assay: ADRB2 activation measured by internalization – cell-based, FAP fluorogen, flow cytometry, cherry pick 1, dose response (AID 588763); format: functional
[5] = Counterscreen for activators of the function of SWI/SNF related, matrix associated, actin dependent regulator of chromatin, subfamily a, member 2 (SMARCA2, BRM): Luminescence-based cell-based high throughput dose response assay to identify non-selective compounds using the VP16 reporter assay.; format: functional
[6] = molecular target: T4, DNA repair protein RAD52 homolog (Homo sapiens, UniProt P43351); format: functional, biochemical
T4 sequence (P43351 whole entry): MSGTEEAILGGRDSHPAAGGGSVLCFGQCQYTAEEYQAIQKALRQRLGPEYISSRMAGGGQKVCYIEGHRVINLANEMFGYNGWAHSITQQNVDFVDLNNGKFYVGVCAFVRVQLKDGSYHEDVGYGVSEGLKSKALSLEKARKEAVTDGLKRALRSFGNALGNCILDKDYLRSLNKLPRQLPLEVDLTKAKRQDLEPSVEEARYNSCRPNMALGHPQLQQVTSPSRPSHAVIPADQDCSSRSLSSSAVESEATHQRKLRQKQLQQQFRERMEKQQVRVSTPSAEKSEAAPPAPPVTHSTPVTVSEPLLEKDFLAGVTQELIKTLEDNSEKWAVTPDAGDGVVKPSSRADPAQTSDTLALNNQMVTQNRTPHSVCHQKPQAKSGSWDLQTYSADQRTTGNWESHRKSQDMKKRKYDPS

Aminopeptidase N = molecular target: T5, Aminopeptidase N (Plasmodium falciparum FcB1/Columbia, UniProt O96935); assay: malaria alanyl aminopeptidase activity blockers – biochemical, fluorogenic H-Leu-NHMec substrate, 1536-well (AID 1445); set-up: species or system Plasmodium falciparum 3D7, 3D7
T5 sequence (O96935 whole entry): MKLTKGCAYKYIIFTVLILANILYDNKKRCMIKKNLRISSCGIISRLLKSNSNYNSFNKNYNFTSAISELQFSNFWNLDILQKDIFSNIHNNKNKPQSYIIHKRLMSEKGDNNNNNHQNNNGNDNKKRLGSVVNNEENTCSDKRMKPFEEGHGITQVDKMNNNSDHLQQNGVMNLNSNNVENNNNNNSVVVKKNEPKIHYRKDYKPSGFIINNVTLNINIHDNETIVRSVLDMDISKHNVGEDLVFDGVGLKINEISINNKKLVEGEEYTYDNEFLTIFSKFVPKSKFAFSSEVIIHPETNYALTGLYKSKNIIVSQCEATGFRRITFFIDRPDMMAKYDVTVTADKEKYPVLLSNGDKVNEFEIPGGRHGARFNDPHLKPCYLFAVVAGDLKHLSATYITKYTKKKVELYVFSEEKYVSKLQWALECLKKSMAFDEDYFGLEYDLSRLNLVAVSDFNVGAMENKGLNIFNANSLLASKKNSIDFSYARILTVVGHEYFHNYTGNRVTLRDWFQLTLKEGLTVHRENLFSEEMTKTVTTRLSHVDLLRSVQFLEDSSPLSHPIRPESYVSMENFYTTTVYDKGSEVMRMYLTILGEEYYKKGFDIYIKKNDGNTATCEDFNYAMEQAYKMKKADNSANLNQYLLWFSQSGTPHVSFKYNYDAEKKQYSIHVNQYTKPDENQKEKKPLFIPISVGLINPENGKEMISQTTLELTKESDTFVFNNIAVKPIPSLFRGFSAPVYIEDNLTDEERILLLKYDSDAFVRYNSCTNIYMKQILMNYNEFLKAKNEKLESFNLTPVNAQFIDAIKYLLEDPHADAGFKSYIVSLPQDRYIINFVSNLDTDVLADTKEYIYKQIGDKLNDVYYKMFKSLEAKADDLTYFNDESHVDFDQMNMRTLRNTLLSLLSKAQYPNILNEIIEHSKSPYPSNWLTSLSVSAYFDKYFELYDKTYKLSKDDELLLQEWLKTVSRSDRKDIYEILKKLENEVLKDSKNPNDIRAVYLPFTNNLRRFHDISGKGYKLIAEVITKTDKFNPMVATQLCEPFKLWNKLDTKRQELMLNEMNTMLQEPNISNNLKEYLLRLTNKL

[7] = molecular target: SWI/SNF-related matrix-associated actin-dependent regulator of chromatin subfamily A member 2 (Homo sapiens, UniProt P51531); assay: Luminescence-based cell-based high throughput dose response assay to identify activators of the function of SWI/SNF related, matrix associated, actin dependent regulator of chromatin, subfamily a, member 2 (SMARCA2, BRM).; format: functional
Vero = assay: mammalian cell viability reduction – secondary assay, cytotoxicity control for West Nile virus antiviral project, dose response (AID 1650); format: functional; conditions: Chlorocebus sabaeus
Beta-galactosidase = Beta-galactosidase (Escherichia coli, UniProt Q8VNN2); assay: Dose response counterscreen for EBI2 assay utilizing the enzyme, b-galactosidase.; format: functional
[8] = HEK-293T viability loss after treatment – luminescence, T-cell screen hits, cytotoxicity control for TCR NF-kB inhibitor project, dose response (AID 489026); format: functional, cell-based;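 also: cells exposed to compound about 14 hours before the viability readout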
[9] = bead-based luminescence quenchers, dual-tagged ARNT – biochemical, AlphaScreen, cherry-pick, artefact control for ARNT-TACC3 interaction inhibitor project, dose response (AID 651705); format: functional;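 also: AlphaScreen bead proximity signal that flags compounds interfering with the detection technology; potency reflects signal decrease which marks the compound as an assay artifact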
[10] = molecular target: Arf-GAP with SH3 domain, ANK repeat and PH domain-containing protein 1 (Homo sapiens, UniProt Q9ULH1); format: functional;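 also: biochemical fluorescence polarization dose–response screen measuring inhibition of ASAP1; ASAP1 GAP domain stimulating GTP hydrolysis by truncated human ARF1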
Arf-GAP with SH3 domain, ANK repeat and PH domain-containing protein 1, sequence (Q9ULH1 whole entry, the tested form may be a part): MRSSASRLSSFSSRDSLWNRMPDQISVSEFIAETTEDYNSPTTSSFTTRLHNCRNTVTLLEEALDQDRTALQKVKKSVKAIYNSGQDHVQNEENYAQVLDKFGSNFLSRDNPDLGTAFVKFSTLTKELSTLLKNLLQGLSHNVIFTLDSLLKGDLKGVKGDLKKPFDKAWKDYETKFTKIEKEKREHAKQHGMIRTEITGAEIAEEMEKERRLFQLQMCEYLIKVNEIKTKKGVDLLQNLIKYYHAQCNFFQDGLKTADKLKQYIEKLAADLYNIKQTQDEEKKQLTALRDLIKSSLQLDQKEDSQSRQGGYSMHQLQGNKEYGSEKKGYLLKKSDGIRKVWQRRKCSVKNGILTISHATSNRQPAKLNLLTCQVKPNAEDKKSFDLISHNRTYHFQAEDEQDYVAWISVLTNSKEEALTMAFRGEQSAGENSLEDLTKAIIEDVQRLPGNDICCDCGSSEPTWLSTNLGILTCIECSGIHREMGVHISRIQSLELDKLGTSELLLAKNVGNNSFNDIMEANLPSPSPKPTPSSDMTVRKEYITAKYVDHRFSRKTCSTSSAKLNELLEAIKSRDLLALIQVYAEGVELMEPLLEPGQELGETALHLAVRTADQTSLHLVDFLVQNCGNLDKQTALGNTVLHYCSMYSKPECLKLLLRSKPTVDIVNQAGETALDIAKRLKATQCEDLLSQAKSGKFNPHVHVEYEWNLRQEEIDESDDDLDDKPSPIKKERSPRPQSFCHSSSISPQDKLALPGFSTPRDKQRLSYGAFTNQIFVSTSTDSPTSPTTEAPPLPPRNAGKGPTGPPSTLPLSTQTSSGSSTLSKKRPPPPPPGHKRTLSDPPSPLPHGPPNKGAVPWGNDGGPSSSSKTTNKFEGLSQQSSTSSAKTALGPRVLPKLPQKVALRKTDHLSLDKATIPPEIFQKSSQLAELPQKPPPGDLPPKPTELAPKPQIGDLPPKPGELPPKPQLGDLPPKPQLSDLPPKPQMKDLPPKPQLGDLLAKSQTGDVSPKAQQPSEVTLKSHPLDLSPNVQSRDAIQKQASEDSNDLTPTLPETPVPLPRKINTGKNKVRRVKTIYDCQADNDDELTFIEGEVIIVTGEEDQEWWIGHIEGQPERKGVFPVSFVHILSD

Beta-galactosidase, sequence (Q8VNN2 whole entry): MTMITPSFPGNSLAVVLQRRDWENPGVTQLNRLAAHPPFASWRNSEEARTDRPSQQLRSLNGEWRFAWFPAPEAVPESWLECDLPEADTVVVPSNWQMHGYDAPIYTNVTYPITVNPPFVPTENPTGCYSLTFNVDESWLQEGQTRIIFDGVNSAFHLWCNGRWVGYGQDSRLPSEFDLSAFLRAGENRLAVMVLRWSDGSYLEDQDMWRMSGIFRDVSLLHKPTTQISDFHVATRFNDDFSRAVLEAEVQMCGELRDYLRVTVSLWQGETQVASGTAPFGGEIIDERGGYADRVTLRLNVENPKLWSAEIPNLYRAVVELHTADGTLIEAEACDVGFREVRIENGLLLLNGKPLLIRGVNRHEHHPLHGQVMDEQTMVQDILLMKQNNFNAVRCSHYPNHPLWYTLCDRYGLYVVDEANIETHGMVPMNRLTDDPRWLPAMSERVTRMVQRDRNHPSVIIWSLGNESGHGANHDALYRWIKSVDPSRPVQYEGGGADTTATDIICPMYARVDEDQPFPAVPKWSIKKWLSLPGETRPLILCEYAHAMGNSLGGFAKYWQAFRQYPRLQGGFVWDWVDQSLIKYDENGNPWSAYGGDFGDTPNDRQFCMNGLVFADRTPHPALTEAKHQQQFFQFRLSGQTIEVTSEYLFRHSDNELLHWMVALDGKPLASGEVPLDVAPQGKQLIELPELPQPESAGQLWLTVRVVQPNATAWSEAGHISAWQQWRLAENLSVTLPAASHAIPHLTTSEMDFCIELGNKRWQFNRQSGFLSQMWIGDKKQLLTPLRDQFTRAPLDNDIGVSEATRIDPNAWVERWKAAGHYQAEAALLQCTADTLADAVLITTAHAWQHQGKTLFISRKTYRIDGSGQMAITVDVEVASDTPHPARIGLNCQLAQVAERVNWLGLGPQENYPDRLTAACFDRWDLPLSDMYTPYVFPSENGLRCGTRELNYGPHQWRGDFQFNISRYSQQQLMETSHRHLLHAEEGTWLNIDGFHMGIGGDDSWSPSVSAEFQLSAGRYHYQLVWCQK
T3 sequence (P07550 whole entry): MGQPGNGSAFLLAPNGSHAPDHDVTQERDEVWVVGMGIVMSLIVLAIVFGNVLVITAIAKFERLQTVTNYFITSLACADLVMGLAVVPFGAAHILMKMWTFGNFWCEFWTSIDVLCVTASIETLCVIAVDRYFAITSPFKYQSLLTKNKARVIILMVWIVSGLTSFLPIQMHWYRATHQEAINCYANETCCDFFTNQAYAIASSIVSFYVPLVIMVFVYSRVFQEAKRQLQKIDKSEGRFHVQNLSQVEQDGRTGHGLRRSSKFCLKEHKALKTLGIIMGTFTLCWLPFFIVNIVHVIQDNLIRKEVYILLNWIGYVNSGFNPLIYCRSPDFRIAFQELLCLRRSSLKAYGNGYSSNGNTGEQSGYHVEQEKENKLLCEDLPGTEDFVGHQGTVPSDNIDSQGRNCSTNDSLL
SWI/SNF-related matrix-associated actin-dependent regulator of chromatin subfamily A member 2, sequence (P51531 whole entry): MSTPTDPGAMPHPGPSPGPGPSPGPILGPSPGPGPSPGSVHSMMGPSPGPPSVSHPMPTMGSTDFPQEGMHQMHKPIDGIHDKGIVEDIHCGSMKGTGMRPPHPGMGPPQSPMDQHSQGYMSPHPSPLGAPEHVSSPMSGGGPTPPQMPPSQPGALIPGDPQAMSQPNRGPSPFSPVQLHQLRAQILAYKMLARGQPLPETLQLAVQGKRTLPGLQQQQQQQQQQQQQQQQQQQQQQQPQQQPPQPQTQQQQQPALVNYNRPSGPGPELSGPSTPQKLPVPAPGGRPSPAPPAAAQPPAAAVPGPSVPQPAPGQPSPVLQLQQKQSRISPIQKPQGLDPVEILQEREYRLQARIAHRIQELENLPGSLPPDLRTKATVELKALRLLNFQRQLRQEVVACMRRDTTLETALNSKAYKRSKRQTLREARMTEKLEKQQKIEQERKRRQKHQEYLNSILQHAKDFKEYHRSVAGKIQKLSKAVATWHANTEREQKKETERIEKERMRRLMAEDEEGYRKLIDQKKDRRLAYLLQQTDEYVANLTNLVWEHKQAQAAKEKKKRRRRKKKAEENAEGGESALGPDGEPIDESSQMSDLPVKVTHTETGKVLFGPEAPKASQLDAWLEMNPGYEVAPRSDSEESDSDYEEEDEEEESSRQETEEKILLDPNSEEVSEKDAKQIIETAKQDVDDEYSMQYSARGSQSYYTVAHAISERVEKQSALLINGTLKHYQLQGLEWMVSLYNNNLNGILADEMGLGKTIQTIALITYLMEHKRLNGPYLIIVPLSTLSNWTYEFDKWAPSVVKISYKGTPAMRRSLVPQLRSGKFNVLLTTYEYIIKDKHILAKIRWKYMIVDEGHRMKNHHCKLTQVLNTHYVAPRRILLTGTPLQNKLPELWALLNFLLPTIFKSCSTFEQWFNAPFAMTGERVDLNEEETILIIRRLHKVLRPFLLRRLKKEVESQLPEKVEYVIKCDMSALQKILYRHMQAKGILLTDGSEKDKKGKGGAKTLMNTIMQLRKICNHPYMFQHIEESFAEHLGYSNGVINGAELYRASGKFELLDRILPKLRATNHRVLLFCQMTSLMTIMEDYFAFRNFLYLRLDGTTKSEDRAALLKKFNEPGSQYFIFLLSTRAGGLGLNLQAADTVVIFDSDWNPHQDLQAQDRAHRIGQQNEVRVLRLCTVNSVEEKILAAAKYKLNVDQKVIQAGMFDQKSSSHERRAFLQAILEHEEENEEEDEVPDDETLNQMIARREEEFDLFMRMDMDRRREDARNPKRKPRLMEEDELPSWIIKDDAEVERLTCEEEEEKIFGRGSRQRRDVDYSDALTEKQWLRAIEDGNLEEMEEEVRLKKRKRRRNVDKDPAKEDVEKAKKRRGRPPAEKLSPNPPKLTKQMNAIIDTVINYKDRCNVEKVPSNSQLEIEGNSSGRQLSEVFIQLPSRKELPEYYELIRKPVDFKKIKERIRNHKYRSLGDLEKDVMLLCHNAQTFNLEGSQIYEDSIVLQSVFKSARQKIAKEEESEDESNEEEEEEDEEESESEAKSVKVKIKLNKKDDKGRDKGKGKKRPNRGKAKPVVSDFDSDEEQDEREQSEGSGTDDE

SMILES: O=C1c2ccccc2C(=O)c2c(NCCCN(CCO)CCO)cccc21
EC50 [5]: > 91.2 µM (inactive)
AC50 [6]: 0.977 µM (active)
IC50 (Aminopeptidase N): 77.7 µM (active)
EC50 [7]: > 10.1 µM (inactive)
CC50 (Vero): 13.9 µM (active)

SMILES: Cc1cccc(N2CCN(C(=O)c3ccc4[nH]c(C)c(C)c4c3)CC2)c1C
IC50 (Beta-galactosidase): > 80 µM (inactive)
IC50 [8]: > 80 µM (inactive)

SMILES: O=C(CSc1ccc(-c2ccccn2)nn1)c1ccc([N+](=O)[O-])cc1
AC50 [9]: 131 µM (active)

Second part, led by results:

AC50 (Caspase-6): 4.22 µM (active)
SMILES: COC(=O)N/N=C1/C/C(=N\NC(=O)OC)c2ccccc21
IC50 [1]: 0.365 µM (active)
IC50 [2]: 0.557 µM (active)

EC50 [3]: 0.987 µM (active)
EC50 [4]: 1.95 µM (active)
SMILES: CCOC(=O)N1CCN(C(=O)CN(C)S(=O)(=O)c2ccc(Cl)cc2)CC1

IC50 (Beta-galactosidase): > 80 µM (inactive)
SMILES: CCc1ccc2oc(C(=O)N3CCN(c4ccc(OC)cc4)CC3)cc(=O)c2c1

IC50 [10]: 24.7 µM (inactive)
SMILES: COc1cccc(-n2nnc3c(=O)n(Cc4ccc(Br)cc4)cnc32)c1
